Measurements reported in patent publication US10092648B2, “Selective glucagon-like-peptide-2 (GLP-2) analogues” (Zealand Pharma A/S, priority 2006, dated 2018).

Experiments:
[1] = test system: male C57BL mice; assay: In vivo stimulation of stomach growth, 200 nmol/kg (Example 12)
Description: The effects of the test compounds according to the invention were determined based on the ability of the peptides to selectively increase stomach mass, relative to vehicle control. The ability of the present compounds (ZP2395, ZP2396, ZP2400, ZP2412, ZP2394 and ZP2401) to selectively stimulate stomach mass, relative to colon mass was determined in male C57BL mice. Individual groups (n=6-10) of mice were given 200 nmol/kg of each compound, s.c, once daily for three consecutive days. For comparison purposes other groups of animals were given either an equimolar dose of [[…]]GLP-2 or vehicle (phosphate buffered saline, pH 7.4) in the same dosing regimen. Twenty-four hours after the last dose of compound had been given the mice were sacrificed and the stomach and small intestine (from the pylorus to the ileocaecal junction) emptied and weighed. To correct for slight difference in body weight (BW), the organ mass of the stomach is presented relative to BW. […] To evaluate the differential growth pattern induced by ZP compounds, compared to [[…]]GLP-2, on the stomach, the stomach-colon sensitivity index of compound X was calculated as: (Stomach/Colon)x/Stomach/(Colon)[[…]]GLP-2% Compounds with a stomach/colon sensitivity greater than or equal to 1.05 were considered relatively selective for the stomach.

[2] = test system: male C57BL mice; assay: In vivo stimulation of intestinal growth, 200 nmol/kg (Example 11); conditions: for Sensitivity index Si/Colon: relative to 1559
Description: The ability of further compounds to selectively stimulate small intestinal mass, relative to colon mass was determined in male C57BL mice. A similar protocol was used to that described above in Example 10 except that 200 nmol/kg of each compound was administered per day. Thus, individual groups (n=6-10) of mice were given 200 nmol/kg of each compound, s.c, once daily for three consecutive days. Other groups of animals were given either an equimolar dose of [[…]]GLP-2 (reference compound) or vehicle (phosphate buffered saline, pH 7.4; negative controls) in the same dosing regimen. Twenty-four hours after the last dose of compound the mice were sacrificed and the stomach, small intestine and the colon emptied and weighed.

[3] = 200 nmol/kg s.c. once daily for 3 days
[4] = 200 nmol/kg s.c. once daily for 3 days, relative to 1559
[5] = colon weight relative to body weight, relative to ZP1559
[6] = small intestine weight relative to body weight, relative to ZP1559

Substance	Preferential stimulation of epithelial growth in the stomach (summary) [1, 3]	Selectivity for stomach mass relative to colon mass (FIG. 7) [1, 3]	Sto-BW, compared to 1559 in % [1, 3] [%]	Sensitivity index Stomach/Co [1, 4]	Sensitivity index Stomach/Co ([1]; ratio Stomach-BW / Colon-BW)	Colon-BW, compared to 1559 in % [2, 3] [%]	SI-BW, compared to 1559 in % [2, 3] [%]	Sensitivity index Si/Colon [2, 3]	Colon-BW, compared to 1559 in % [2, 5] [%]	SI-BW, compared to 1559 in % [2, 6] [%]	Preferential stimulation of epithelial growth in the small intestine (summary) [2, 3]	Selectivity for small intestinal mass relative to colon mass (FIG. 6) [2, 3]	Organ selectivity (FIG. 8, unselective compounds) [2, 3]
H-HGEGSFSDELFTILEFLAASDFISWLISTKITD-NH2 [ZP2401]	preferentially stimulating epithelial growth in the stomach	selectively increase stomach mass, relative to colon mass	107	1.22	1.22	88	98	1.11	88	98			
H-HGEGSFSDELLTILELLAASDFISWLISTKITDKKKKKK-NH2 [ZP2394]	preferentially stimulating epithelial growth in the stomach	selectively increase stomach mass, relative to colon mass	109	1.14	1.14	96	105	1.09	96	105			
H-HGEGSFSDELSTILEALAASDFISWLISTKITD-NH2 [ZP2398]			102	1.05	1.05	97	108	1.11	97	108	preferentially stimulating epithelial growth in the small intestine	selectively increase small intestinal mass, relative to colon mass	
H-HGEGSFSDELATILESLAAADFISWLIATKITDKKKKKK-NH2 [ZP2413]			108	0.92		117	116	0.99					unselective for the small intestine, colon or stomach
H-HGEGSFSDELATILEALAAADFISWLIATKITDKKKKKK-NH2 [ZP2411]			106	0.95	0.95	111	117	1.05	111	117	preferentially stimulating epithelial growth in the small intestine	selectively increase small intestinal mass, relative to colon mass	
H-HGEGSFSDELATILESLAASDFISWLISTKITDKKKKKK-NH2 [ZP2386]			95	0.86		111	113	1.02					unselective for the small intestine, colon or stomach
H-HGEGSFSDELATILESLAASDFISWLISTKITD-NH2 [ZP2399]			115	1.12	1.12	103	119	1.16	103	119	preferentially stimulating epithelial growth in the small intestine	selectively increase small intestinal mass, relative to colon mass	
H-HGEGSFSDELETILEELAAEDFIEWLIETKITDKKKKKK-NH2 [ZP2378]			94	0.97		97	91	0.94					unselective for the small intestine, colon or stomach
H-HGEGSFSDELATILEALAAADFIAWLISTKITD-NH2 [ZP2397]			109	1.08	1.08	101	122	1.21	101	122	preferentially stimulating epithelial growth in the small intestine	selectively increase small intestinal mass, relative to colon mass	
H-HGEGSFSDELATILESLAAADFIAWLIATKITDKKKKKK-NH2 [ZP2415]			100	0.94		106	106	1.00					unselective for the small intestine, colon or stomach
H-HGEGSFSDELLTILELLAASDFISWLISTKITD-NH2 [ZP2400]	preferentially stimulating epithelial growth in the stomach	selectively increase stomach mass, relative to colon mass	111	1.05	1.05	106	106	1.00	106	106			
H-HGEGSFSDELLTILELLAALDFILWLILTKITDKKKKKK-NH2 [ZP2424]			91	0.93		98	86	0.88					unselective for the small intestine, colon or stomach
H-HGEGSFSDELATI LEALAASDFIAWLIATKITDKKKKKK-NH2 [ZP2423]			94	0.86	0.86	109	123	1.13	109	123	preferentially stimulating epithelial growth in the small intestine	selectively increase small intestinal mass, relative to colon mass	
H-HGEGSFSDELLTILELLAAADFIAWLIATKITDKKKKKK-NH2 [ZP2412]	preferentially stimulating epithelial growth in the stomach	selectively increase stomach mass, relative to colon mass	106	1.07	1.07	99	94	0.95	99	94			
